Measured values reported in patent publication US20070049593A1 (priority 2004, published 2007).
Where a name gives a salt, the structure may show the parent alone.

Molecular target: T1, HCV polymerase (Hepatitis C virus genotype 1b, UniProt P26663)
T1 construct: a region encoding NS5B (J Virol 1991 March, 65(3), 1105-13, 544 amino acids after deletion of 47 amino acids on the C-terminal); 6xHis (C); made in house; host or cells: Escherichia coli
Experiment: biochemical
Design: species or system HCV BK strain
Conditions: not given
Procedure, shortened: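 His-tagged NS5B (BK strain, 47-aa C-terminal deletion, E. coli-expressed) at 0.5 μg/ml copied 5 μg/ml run-off RNA bearing the HCV 3′ UTR with 2 μM UTP plus [3H]UTP, 50 μM ATP/GTP, in pH 7.5 Tris with 5 mM MgCl2, 25 °C, 90 min. TCA-precipitated RNA was counted and IC50 calculated.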

T1 sequence (P26663 2420-2963): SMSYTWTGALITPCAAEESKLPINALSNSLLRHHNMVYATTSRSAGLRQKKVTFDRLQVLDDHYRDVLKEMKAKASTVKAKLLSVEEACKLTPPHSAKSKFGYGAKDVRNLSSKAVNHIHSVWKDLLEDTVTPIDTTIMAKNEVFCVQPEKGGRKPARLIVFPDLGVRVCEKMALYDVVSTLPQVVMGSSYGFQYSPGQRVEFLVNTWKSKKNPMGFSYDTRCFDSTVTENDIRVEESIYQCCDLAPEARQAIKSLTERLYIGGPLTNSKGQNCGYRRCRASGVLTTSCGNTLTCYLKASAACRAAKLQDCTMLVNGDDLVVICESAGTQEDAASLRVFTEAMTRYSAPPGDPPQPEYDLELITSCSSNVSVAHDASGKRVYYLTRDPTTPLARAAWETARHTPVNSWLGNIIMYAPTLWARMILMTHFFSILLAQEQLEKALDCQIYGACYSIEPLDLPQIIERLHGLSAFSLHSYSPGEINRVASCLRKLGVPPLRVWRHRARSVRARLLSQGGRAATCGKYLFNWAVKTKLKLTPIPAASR

Row | SMILES | IC50
1 | CCC1CCN(CCN2CCn3c(c(C4CCCCC4)c4ccc(C(=O)O)cc43)-c3ccccc32)C1 (centres unmarked) [Example 1-382, 13-cyclohexyl-5-[2-(3-ethylpyrrolidin-1-yl)ethyl]-6,7-dihydro-5H-benzo[5,6][1,4]diazepino[7,1-a]indole-10-carboxylic acid dihydrochloride] | < 100 nM
2 | CCC1CCN(CCN2CCn3c(c(C4CCCCC4)c4ccc(C(=O)O)cc43)-c3ccc(Cl)cc32)C1 (centres unmarked) [Example 1-383, 3-chloro-13-cyclohexyl-5-[2-(3-ethylpyrrolidin-1-yl)ethyl]-6,7-dihydro-5H-benzo[5,6][1,4]diazepino[7,1-a]indole-10-carboxylic acid dihydrochloride] | < 100 nM
3 | CCC1CCN(CCN2CCn3c(c(C4CCCCC4)c4ccc(C(=O)O)cc43)-c3ccc(C)cc32)C1 (centres unmarked) [Example 1-384, 13-cyclohexyl-5-[2-(3-ethylpyrrolidin-1-yl)ethyl]-3-methyl-6,7-dihydro-5H-benzo[5,6][1,4]diazepino[7,1-a]indole-10-carboxylic acid dihydrochloride] | < 100 nM
4 | CC(C)COc1ccc2c(c1)N(CCC1CCCN(C(C)C)C1)CCn1c-2c(C2CCCCC2)c2ccc(C(=O)O)cc21 (centres unmarked) [Example 1-385, 13-cyclohexyl-3-isobutoxy-5-[2-(1-isopropylpiperidin-3-yl)ethyl]-6,7-dihydro-5H-benzo[5,6][1,4]diazepino[7,1-a]indole-10-carboxylic acid dihydrochloride] | < 100 nM
5 | CCC(CC)N1CCCC(CCN2CCn3c(c(C4CCCCC4)c4ccc(C(=O)O)cc43)-c3ccc(Cl)cc32)C1 (centres unmarked) [Example 1-386, 3-chloro-13-cyclohexyl-5-{2-[1-(1-ethylpropyl)piperidin-3-yl]ethyl}-6,7-dihydro-5H-benzo[5,6][1,4]diazepino[7,1-a]indole-10-carboxylic acid dihydrochloride] | < 100 nM
6 | CCOCC1CCCN(CCN2CCn3c(c(C4CCCCC4)c4ccc(C(=O)O)cc43)-c3ccccc32)C1 (centres unmarked) [Example 1-387, 13-cyclohexyl-5-[2-(3-ethoxymethylpiperidin-1-yl)ethyl]-6,7-dihydro-5H-benzo[5,6][1,4]diazepino[7,1-a]indole-10-carboxylic acid dihydrochloride] | < 100 nM
7 | COCC1CCCN(CCN2CCn3c(c(C4CCCC4)c4ccc(C(=O)O)cc43)-c3ccc(Cl)cc32)C1 (centres unmarked) [Example 1-390, 3-chloro-13-cyclopentyl-5-[2-(3-methoxymethylpiperidin-1-yl)ethyl]-6,7-dihydro-5H-benzo[5,6][1,4]diazepino[7,1-a]indole-10-carboxylic acid] | < 100 nM
8 | CCOCC1CCCN(CCN2CCn3c(c(C4CCCCC4)c4ccc(C(=O)O)cc43)-c3ccc(Cl)cc32)C1 (centres unmarked) [Example 1-391, 3-chloro-13-cyclohexyl-5-[2-(3-ethoxymethylpiperidin-1-yl)ethyl]-6,7-dihydro-5H-benzo[5,6][1,4]diazepino[7,1-a]indole-10-carboxylic acid dihydrochloride] | < 100 nM
9 | CCOCC1CCCN(CCN2CCn3c(c(C4CCCCC4)c4ccc(C(=O)O)cc43)-c3ccc(C)cc32)C1 (centres unmarked) [Example 1-392, 13-cyclohexyl-5-[2-(3-ethoxymethylpiperidin-1-yl)ethyl]-3-methyl-6,7-dihydro-5H-benzo[5,6][1,4]diazepino[7,1-a]indole-10-carboxylic acid dihydrochloride] | < 100 nM
10 | CC(C)OC1CCCN(CCN2CCn3c(c(C4CCCCC4)c4ccc(C(=O)O)cc43)-c3ccc(Cl)cc32)C1 (centres unmarked) [Example 1-393, 3-chloro-13-cyclohexyl-5-[2-(3-isopropoxypiperidin-1-yl)ethyl]-6,7-dihydro-5H-benzo[5,6][1,4]diazepino[7,1-a]indole-10-carboxylic acid monohydrochloride] | < 100 nM

Same assay, conditions: 25° C., 90 min; [5,6-3H]UTP incorporation into RNA; read-out: HCV polymerase inhibitory activity IC50

Row | SMILES | IC50
11 | CCC1CCCN(CCN2CCn3c(c(C4CCCC4)c4ccc(C(=O)O)cc43)-c3ccc(Cl)cc32)C1 (centres unmarked) [Example 1-389, 3-chloro-13-cyclopentyl-5-[2-(3-ethylpiperidin-1-yl)ethyl]-6,7-dihydro-5H-benzo[5,6][1,4]diazepino[7,1-a]indole-10-carboxylic acid] | < 100 nM
